This is an account of results in patent publication US20160263155A1, “T CELL RECEPTORS DIRECTED AGAINST THE PREFERENTIALLY EXPRESSED ANTIGEN OF MELANOMA AND USES THEREOF” (LEIDEN UNIVERSITY MEDICAL CENTER, priority 2015, published 2016).

Entries after “also recorded” stand apart in the source; their conditions may differ. Bounds are passed on as bounds.

In data set [1] the test system is CD3+ΔCD19+ cells (iCasp9+ T cells). Nature of the data set: Phase I clinical trial of allodepleted T cells transduced with inducible caspase-9 suicide gene after haploidentical stem cell transplantation. It is filed as in vivo, human. An excerpt:
This example presents results of a phase 1 clinical trial using an alternative suicide gene strategy. Briefly, donor peripheral blood mononuclear cells were co-cultured with recipient irradiated EBV-transformed lymphoblastoid cells (40:1) for 72 hrs, allodepleted with a CD25 immunotoxin and then transduced with a retroviral supernatant carrying the iCasp9 suicide gene and a selection marker (ΔCD19); ΔCD19 allowed enrichment to >90% purity via immunomagnetic selection.
Patients developing grade 1 GvHD were treated with 0.4 mg/kg AP1903 as a 2-hour infusion. Protocols for administration of AP1903 to patients grade 1 GvHD were established as follows. Patients developing GvHD after infusion of allodepleted T cells are biopsied to confirm the diagnosis and receive 0.4 mg/kg of AP1903 as a 2 h infusion. […] Patients developing grades 2-4 GvHD were administered standard systemic immunosuppressive therapy per institutional guidelines, in addition to the AP1903 dimerizer drug.
Instructions for preparation and infusion: AP1903 for injection is obtained as a concentrated solution of 2.33 ml in a 3 ml vial, at a concentration of 5 mg/ml, (i.e., […] per vial). Prior to administration, the calculated dose was diluted to 100 mL in 0.9% normal saline for infusion. AP1903 for injection (0.4 mg/kg) in a volume of 100 ml was administered via IV infusion over 2 hours, using a non-DEHP, non-ethylene oxide sterilized infusion set and infusion pump.
Three patients received iCasp9^+ T cells after haplo-CD34^+ stem cell transplantation (SCT), at dose levels between about 1×10^6 to about 3×10^6 cells/kg.
Infused T cells were detected in vivo by flow cytometry (CD3^+ΔCD19^+) or qPCR as early as day 7 after infusion, with a maximum fold expansion of 170±5 (day 29±9 after infusion).

The subject of data set [2] is inducible caspase-9 expressing T cells. Nature of the data set: CASPALLO and DOTTI trials: AP1903 given to subjects treated with T cells containing the iCaspase-9 suicide switch. It is filed as in vivo, human. As for the experimental part: The DOTTI trial is a follow-up study to the CASPALLO trial. Three subjects subsequently developed Grade I & II acute GVHD and were treated with a single dose of the dimerizing drug AP1903. Four subjects are alive at a median of 476 days after transplant (range 278-674 days), and who had received AP1903.

The next data set concerns cells. The data set can be described thus: Amount of AP1903 needed in vitro for effective signaling of cells. It is filed as cell-based. How it is done: The fixed dose of AP1903 for injection used, for example, may be 0.4 mg/kg intravenously infused over 2 hours. The amount of AP1903 needed in vitro for effective signaling of cells is about 10-100 nM (MW: 1412 Da). This equates to 14-140 μg/L or ˜0.014-0.14 mg/kg ([…]). The dosage may vary according to the application, and may, in certain examples, be more in the range of 0.1-10 nM, or in the range of 50-150 nM, 10-200 nM, 75-125 nM, 100-500 nM, 100-600 nM, 100-700 nM, 100-800 nM, or 100-900 nM. Doses up to 1 mg/kg were well-tolerated in the Phase I study of AP1903 described above.

The test system of data set [3] is T cells transduced with the PRAME-TCR in combination with the iCasp9. The data set can be described thus: PRAME reactivity of T cells transduced with PRAME-TCR in combination with iCasp9 after AP1903 treatment. It is filed as cell-based, human. As to conditions: 100 nM AP1903 for 18 h (overnight). As for the experimental part:
The TCRAV and TCRBV gene usage of clone AAV54 (also called clone 54 or HSS1) was determined using reverse transcriptase (RT)-PCR and sequencing^5. […]
FIG. 12, Different retroviral vectors encoding for the PRAME-TCR were transduced into virus specific T cells and the reactivity is measured against target cells loaded with different concentrations of the PRAME peptide and against two melanoma cell-lines: FM6 positive for HLA-A2 and PRAME, and M13046/2 positive for HLA-A2 but negative for PRAME. […]
FIG. 15 Different retroviral vectors encoding for the PRAME-TCR were transduced into virus specific T cells and the reactivity was measured against target cells (T2 cells) loaded with PRAME peptide and two PRAME positive and HLA-A2 positive melanoma cell-lines: 518.A2 and FM6, and one PRAME negative but HLA-A2 positive melanoma cell line M13046/2. […]

Data set [4] deals with Cell A T cells (iCasp9 suicide gene). The data set can be described thus: Overnight culture of spleen and bone marrow cells from Cell A-treated animals with or without rimiducid. The format is cell-based, NSG mouse. As to conditions: 10 nM rimiducid overnight; p<0.05. As for the experimental part:
A fraction of spleen and bone marrow cells were isolated from the Cell A-treated animals as analyzed above, and were cultured overnight with or without 10 nM rimiducid in order to determine the sensitivity of the suicide switch.

The conditions of data set [5]: cited from earlier work.
The test system of another data set is Cell A T cells (iCasp9). Nature of the data set: In vivo Cell A response to rimiducid in NSG mice (flow cytometry of spleens). Set-up: species or system NSG mouse. As to conditions: 24 hours after rimiducid 5 mg/kg i.p.; 42±1.1% in untreated mice; p<0.0001. As for the experimental part: 16 mice received an i.v. injection of 1×10^7 Cell A T cells on Day 0 as outlined above. Forty eight hours later, eight of the mice were injected i.p. with rimiducid at 5 mg/kg to evaluate activation of iCasp9 and apoptosis of the Cell A T cells; the other eight mice were left untreated. […] Thus, the iCasp9 encoded within Cell A represents a functioning safety switch that can be triggered in vivo to eliminate Cell A cells.

Data set [6] has as its target T1, PRAME peptide on HLA-A*02:01 (human).
T1 peptide: SLLQHLIGL
Nature of the data set: multimer staining.

Data set [7] relates to chimeric Caspase-9 polypeptide. The data set can be described thus: Caspase mutant classes and basal activity (Table 3). It is filed as cell-based, human. As to conditions: class heading of Table 3.
Sequence of chimeric Caspase-9 polypeptide (as listed by the source, change not shown): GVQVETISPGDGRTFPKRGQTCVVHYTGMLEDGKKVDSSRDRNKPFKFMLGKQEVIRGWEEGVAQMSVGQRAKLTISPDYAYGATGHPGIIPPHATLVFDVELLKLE

For the molecule `CC[C@H](C(=O)N1CCCC[C@H]1C(=O)O[C@H](CCc1ccc(OC)c(OC)c1)c1cccc(OCC(=O)NCCNC(=O)COc2cccc([C@@H](CCc3ccc(OC)c(OC)c3)OC(=O)[C@@H]3CCCCN3C(=O)[C@@H](CC)c3cc(OC)c(OC)c(OC)c3)c2)c1)c1cc(OC)c(OC)c(OC)c1` (relative stereo) [AP1903, 2-Piperidinecarboxylic acid, 1-[(2S)-1-oxo-2-(3,4,5-trimethoxyphenyl)butyl]-, 1,2-ethanediylbis [imino(2-oxo-2,1-ethanediyl)oxy-3,1-phenylene[(1R)-3-(3,4-dimethoxyphenyl)propylidene]] ester, [2S-[1(R*),2R*[S*[S*[1(R*),2R*]]]]]-(9CI)], the “resolution of skin and liver aGvHD” value in [1] (after AP1903 administration) is not above 24 h. For the same molecule, the “ablation of CD3+ΔCD19+ cells” value in [1] (within 30 minutes of infusion, two patients with grade I/II aGvHD, 0.4 mg/kg as 2-hour infusion) is more than 90%. Besides, the “further reduction of CD3+ΔCD19+ cells” value in data set [1] (within 24 hours) is on record as “further log reduction”. In addition, in data set [2] (30 minutes from the end of a 2 hour intravenous infusion, CASPALLO trial), the “elimination of inducible caspase-9 expressing T cells” value is not below 90%. For the same molecule, the “adverse events associated with AP1903” value in [2] (CASPALLO and DOTTI trials) is listed as “No adverse events; also recorded: no immediate or delayed adverse events”. Further, in data set [2] (four subjects, CASPALLO trial), the “acute GVHD after administration of AP1903” value is “rapidly abrogated”. Moreover, in the data set on cells, the “amount of AP1903 needed for effective signaling, converted to dose” value was in the range of 0.014 to 0.14 mg/kg and the “amount of AP1903 needed in vitro for effective signaling of cells” value was 10 to 100 nM. Moreover, the “amount of AP1903 needed in vitro for effective signaling of cells, converted” value with cells (MW 1412 Da) lay within 14 to 140 µg/L. In data set [3], the “PRAME specific reactivity of T cells transduced with PRAME-TCR and iCasp9 after AP1903” value was “abrogated”. In data set [4], the “fraction of Vβ1+ T cells recovered from spleen and bone marrow” value is “significantly reduced”. Also, in data set [5] (Phase I study), the well-tolerated doses result is on record as “up to 1 mg/kg”. The “adverse event considered possibly related to AP1903” value in data set [5] (human, in vivo, 1 mg/kg) is on record as “vasodilatation”. In addition, in [5] (human, in vivo), the “AP1903 plasma levels versus dose” value is “directly proportional to dose”, the “incidence of adverse events” value is given as “very low”, the serious adverse events entry is “No serious adverse events” and the “severity of adverse events” value was “mild”. The “human T cells in spleen that were Vβ1+” value with Cell A T cells (iCasp9) came to 7.3±0.2%.

B1: AAV46 SLL (TCR, V domains shown)
Valpha: GQQLNQSPQSMFIQEGEDVSMNCTSSSIFNTWLWYKQDPGEGPVLLIALYKAGELTSNGRLTAQFGITRKDSFLNISASIPSDVGIYFCAGIPRDNYGQNFVFGPGTRLSVLP
Vbeta: DVKVTQSSRYLVKRTGEKVFLECVQDMDHENMFWYRQDPGLGLRLIYFSYDVKMKEKGDIPEGYSVSREKKERFSLILESASTNQTSMYLCASTPWLAGGNEQFFGPGTRLTVL
Regarding B1, in data set [6], the binding result is “recognises”.

B2: AAV54 SLL (TCR, V domains shown)
Valpha: AQSVTQLGSHVSVSERALVLLRCNYSSSVPPYLFWYVQYPNQGLQLLLKYTSAATLVKGINGFEAEFKKSETSFHLTKPSAHMSDAAEYFCAVSGQTGANNLFFGTGTRLTVIP
Vbeta: DSGVTQTPKHLITATGQRVTLRCSPRSGDLSVYWYQQSLDQGLQFLIQYYNGEERAKGNILERFSAQQFPDLHSELNLSSLELGDSALYFCASARWDRGGEQYFGPGTRLTVT
For B2, the binding result in data set [6] is “recognises”.

B3: S144A (protein)
chain: GFGDVGALEALRGNADLAYILSMEPCGHCLIINNVNFCRESGLRTRTGSNIDCEKLRRRFSSLHFMVEVKGDLTAKKMVLALLELAQQDHGALDCCVVVILSHGCQASHLQFPGAVYGTDGCPVSVEKIVNIFNGTSCPSLGGKPKLFFIQACGGEQKDHGFEVASTSPEDESPGSNPEPDATPFQEGLRTFDQLDAISSLPTPSDIFVSYSTFPGFVSWRDPKSGSWYVETLDDIFEQWAHSEDLQSLLLRVANAVSVKGIYKQMPGCFNFLRKKLFFKTS
B3: the “Basal Activity” value in [7] is on record as “Decreased”.

B4: S196D (protein)
chain: GFGDVGALESLRGNADLAYILSMEPCGHCLIINNVNFCRESGLRTRTGSNIDCEKLRRRFSDLHFMVEVKGDLTAKKMVLALLELAQQDHGALDCCVVVILSHGCQASHLQFPGAVYGTDGCPVSVEKIVNIFNGTSCPSLGGKPKLFFIQACGGEQKDHGFEVASTSPEDESPGSNPEPDATPFQEGLRTFDQLDAISSLPTPSDIFVSYSTFPGFVSWRDPKSGSWYVETLDDIFEQWAHSEDLQSLLLRVANAVSVKGIYKQMPGCFNFLRKKLFFKTS
B4: the “Basal Activity” value in data set [7] is reported as “Decreased”.

B5: T317S (protein)
chain: GFGDVGALESLRGNADLAYILSMEPCGHCLIINNVNFCRESGLRTRTGSNIDCEKLRRRFSSLHFMVEVKGDLTAKKMVLALLELAQQDHGALDCCVVVILSHGCQASHLQFPGAVYGTDGCPVSVEKIVNIFNGTSCPSLGGKPKLFFIQACGGEQKDHGFEVASTSPEDESPGSNPEPDASPFQEGLRTFDQLDAISSLPTPSDIFVSYSTFPGFVSWRDPKSGSWYVETLDDIFEQWAHSEDLQSLLLRVANAVSVKGIYKQMPGCFNFLRKKLFFKTS
For B5, the “Basal Activity” value in data set [7] is recorded as “Decreased”.

B6: S144D (protein)
chain: GFGDVGALEDLRGNADLAYILSMEPCGHCLIINNVNFCRESGLRTRTGSNIDCEKLRRRFSSLHFMVEVKGDLTAKKMVLALLELAQQDHGALDCCVVVILSHGCQASHLQFPGAVYGTDGCPVSVEKIVNIFNGTSCPSLGGKPKLFFIQACGGEQKDHGFEVASTSPEDESPGSNPEPDATPFQEGLRTFDQLDAISSLPTPSDIFVSYSTFPGFVSWRDPKSGSWYVETLDDIFEQWAHSEDLQSLLLRVANAVSVKGIYKQMPGCFNFLRKKLFFKTS
On to B6, for which the “Basal Activity” value in [7] is “Decreased”.
